Laboratory results: ChEMBL document CHEMBL2424579, “Quinazolin-4-one derivatives as selective histone deacetylase-6 inhibitors for the treatment of Alzheimer's disease” (J Med Chem, 2013)
Active and inactive are the calls of the source. The calls are words filed in the database; no cut-off is given here.

How the values were obtained:
Histone deacetylase 8 = biological target: T1, Histone deacetylase 8 (Homo sapiens, UniProt Q9BY41); assay: Inhibition of human recombinant HDAC8 expressed in baculovirus/sf9 cells using RHKAcKAc as substrate
T1 sequence (Q9BY41 whole entry): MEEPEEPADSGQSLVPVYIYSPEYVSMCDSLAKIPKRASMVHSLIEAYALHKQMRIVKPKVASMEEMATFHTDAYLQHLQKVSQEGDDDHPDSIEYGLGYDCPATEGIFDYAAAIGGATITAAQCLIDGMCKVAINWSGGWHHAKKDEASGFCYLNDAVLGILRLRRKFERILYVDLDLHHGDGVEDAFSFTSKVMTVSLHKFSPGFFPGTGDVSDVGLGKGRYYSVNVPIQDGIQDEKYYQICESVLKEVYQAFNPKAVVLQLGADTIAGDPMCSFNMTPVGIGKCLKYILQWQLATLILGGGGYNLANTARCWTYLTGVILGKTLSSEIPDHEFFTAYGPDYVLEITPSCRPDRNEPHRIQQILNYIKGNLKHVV

PC-12 [1] = assay: Inhibition of HDAC6 in rat PC12 cells assessed as induction of alpha-tubulin acetylation at 10 uM after 48 hrs by Western blotting analysis; format: cell-based
PC-12 [2] = assay: Inhibition of HDAC6 in rat PC12 cells assessed as acetylation of histone H3 at 10 uM after 48 hrs by Western blotting analysis; format: cell-based
SH-SY5Y [3] = assay: Induction of neurite outgrowth in human SH-SY5Y cells at 10 uM after 5 days; format: functional, cell-based
PC-12 [4] = assay: Cytotoxicity against rat PC12 cells at 25 uM; format: cell-based; conditions: pc-12, 25 µM
SH-SY5Y [5] = assay: Increase of synaptic activity in human SH-SY5Y cells after 5 days by fluorescence assay; format: functional, cell-based; conditions: 120 h
Histone deacetylase 11 = biological target: T2, Histone deacetylase 11 (Homo sapiens, UniProt Q96DB2); assay: Inhibition of human recombinant HDAC11 expressed in baculovirus/sf9 cells using RHKKAc as substrate
T2 sequence (Q96DB2 whole entry): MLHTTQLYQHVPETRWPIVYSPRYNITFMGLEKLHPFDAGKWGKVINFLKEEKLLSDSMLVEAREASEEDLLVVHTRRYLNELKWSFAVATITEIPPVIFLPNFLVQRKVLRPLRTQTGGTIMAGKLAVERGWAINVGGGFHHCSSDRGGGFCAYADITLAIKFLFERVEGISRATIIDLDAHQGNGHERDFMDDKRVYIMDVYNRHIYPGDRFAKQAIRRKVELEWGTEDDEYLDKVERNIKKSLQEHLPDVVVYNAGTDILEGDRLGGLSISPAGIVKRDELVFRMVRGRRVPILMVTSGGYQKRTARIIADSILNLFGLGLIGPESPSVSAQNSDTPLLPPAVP

Histone deacetylase 1 = Histone deacetylase 1 (Homo sapiens, UniProt Q13547); assay: Inhibition of human recombinant HDAC1 expressed in baculovirus/sf9 cells using RHKKAc as substrate
SH-SY5Y [6] = assay: Induction of neurite outgrowth in human SH-SY5Y cells after 5 days; format: functional, cell-based; conditions: 120 h
PC-12 [7] = assay: Induction of neurite outgrowth in rat PC12 cells after 5 days; format: functional, cell-based; conditions: PC-12, 120 h
[8] = biological target: T3, Protein deacetylase HDAC6 (Homo sapiens, UniProt Q9UBN7); assay: Inhibition of human recombinant HDAC6 expressed in baculovirus/sf9 cells using RHKKAc as substrate
T3 sequence (Q9UBN7 whole entry): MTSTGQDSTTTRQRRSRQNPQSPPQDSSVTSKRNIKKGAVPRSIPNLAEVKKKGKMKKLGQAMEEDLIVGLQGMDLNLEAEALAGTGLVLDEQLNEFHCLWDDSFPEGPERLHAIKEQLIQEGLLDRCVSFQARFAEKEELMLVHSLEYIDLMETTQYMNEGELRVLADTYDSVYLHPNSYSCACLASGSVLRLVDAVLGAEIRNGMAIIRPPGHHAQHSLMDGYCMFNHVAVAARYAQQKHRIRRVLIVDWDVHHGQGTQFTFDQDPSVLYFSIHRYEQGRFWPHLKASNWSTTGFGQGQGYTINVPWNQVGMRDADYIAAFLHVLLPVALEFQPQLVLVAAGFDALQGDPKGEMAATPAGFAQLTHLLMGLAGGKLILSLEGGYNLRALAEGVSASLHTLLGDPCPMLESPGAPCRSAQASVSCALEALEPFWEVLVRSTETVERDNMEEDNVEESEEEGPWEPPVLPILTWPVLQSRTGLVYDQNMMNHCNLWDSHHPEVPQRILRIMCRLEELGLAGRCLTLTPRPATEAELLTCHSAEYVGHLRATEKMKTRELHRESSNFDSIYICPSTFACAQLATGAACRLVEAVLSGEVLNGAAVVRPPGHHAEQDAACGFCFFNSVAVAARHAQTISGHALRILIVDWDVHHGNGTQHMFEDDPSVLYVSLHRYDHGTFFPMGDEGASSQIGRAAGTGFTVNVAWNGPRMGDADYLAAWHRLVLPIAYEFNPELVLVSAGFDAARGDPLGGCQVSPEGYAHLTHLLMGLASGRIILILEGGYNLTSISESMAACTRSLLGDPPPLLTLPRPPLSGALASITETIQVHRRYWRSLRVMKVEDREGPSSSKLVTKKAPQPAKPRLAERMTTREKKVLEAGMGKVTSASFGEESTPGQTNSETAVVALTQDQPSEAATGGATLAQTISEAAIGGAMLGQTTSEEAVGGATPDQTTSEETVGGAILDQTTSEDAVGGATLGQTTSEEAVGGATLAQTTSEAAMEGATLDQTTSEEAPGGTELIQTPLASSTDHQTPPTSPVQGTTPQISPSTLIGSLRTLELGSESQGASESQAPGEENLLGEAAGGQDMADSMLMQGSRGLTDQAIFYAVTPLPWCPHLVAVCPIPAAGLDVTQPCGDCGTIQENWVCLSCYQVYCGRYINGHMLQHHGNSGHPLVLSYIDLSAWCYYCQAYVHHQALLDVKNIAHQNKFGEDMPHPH

Vero = assay: Cytotoxicity against african green monkey Vero cells at 25 uM; format: cell-based; conditions: chlorocebus sabaeus
PC-12 [9] = assay: Induction of neurite outgrowth in rat PC12 cells at 10 uM after 5 days; format: functional, cell-based
[10] = Cytotoxicity against human SH-SY5Y cells at 25 uM; format: cell-based
PC-12 [11] = assay: Induction iof GAP-43 protein expression in rat PC12 cells after 48 hrs by Western blotting analysis; format: functional, cell-based
PC-12 [12] = assay: Increase of synaptic activity in rat PC12 cells after 5 days by fluorescence assay; format: functional, cell-based; conditions: PC-12, 120 h
[13] = biological target: Poly [ADP-ribose] polymerase 1 (Homo sapiens) (UniProt P09874); assay: Inhibition of PARP1 (unknown origin) up to 25 uM
[14] = biological target: T4, Amyloid-beta precursor protein (Homo sapiens, UniProt P05067); assay: Inhibition of amyloid beta aggregation (unknown origin) after 4 hrs by thioflavin S assay in presence of Zn2+
Histone deacetylase 2 = Histone deacetylase 2 (Homo sapiens, UniProt Q92769); assay: Inhibition of human recombinant HDAC2 expressed in baculovirus/sf9 cells using RHKKAc as substrate
[15] = biological target: T5, Polyamine deacetylase HDAC10 (Homo sapiens, UniProt Q969S8); assay: Inhibition of human recombinant HDAC10 expressed in baculovirus/sf9 cells using RHKKAc as substrate
T5 sequence (Q969S8 whole entry): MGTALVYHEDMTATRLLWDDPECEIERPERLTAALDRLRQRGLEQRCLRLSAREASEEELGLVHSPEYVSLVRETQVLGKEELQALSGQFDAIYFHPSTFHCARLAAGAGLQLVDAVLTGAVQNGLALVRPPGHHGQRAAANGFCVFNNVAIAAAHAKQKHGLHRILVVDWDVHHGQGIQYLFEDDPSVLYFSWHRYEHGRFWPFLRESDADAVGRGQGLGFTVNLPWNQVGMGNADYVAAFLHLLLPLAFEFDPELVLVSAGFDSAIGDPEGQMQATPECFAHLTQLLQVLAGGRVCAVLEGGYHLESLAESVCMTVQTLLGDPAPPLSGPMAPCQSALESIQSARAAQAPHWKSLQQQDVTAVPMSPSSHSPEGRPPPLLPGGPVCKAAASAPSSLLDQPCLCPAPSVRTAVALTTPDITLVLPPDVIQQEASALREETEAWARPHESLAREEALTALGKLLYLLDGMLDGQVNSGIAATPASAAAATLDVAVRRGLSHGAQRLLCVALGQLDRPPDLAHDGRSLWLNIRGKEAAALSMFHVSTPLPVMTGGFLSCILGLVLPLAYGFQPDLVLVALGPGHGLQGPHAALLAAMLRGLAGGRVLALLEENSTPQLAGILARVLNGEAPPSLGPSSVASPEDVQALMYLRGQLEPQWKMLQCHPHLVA

Homo sapiens [16] = species on record: Homo sapiens; assay: Selectivity index, ratio of IC50 for human recombinant HDAC1 to IC50 for human recombinant HDAC6
[17] = biological target: T4, Amyloid-beta precursor protein; assay: Inhibition of amyloid beta aggregation (unknown origin) after 4 hrs by thioflavin S assay in absence of Zn2+
Homo sapiens [18] = species on record: Homo sapiens; assay: Selectivity index, ratio of IC50 for human recombinant HDAC8 to IC50 for human recombinant HDAC6
PC-12 [19] = assay: Inhibition of HDAC6 in rat PC12 cells assessed as induction of alpha-tubulin acetylation after 48 hrs by Western blotting analysis; format: cell-based
PC-12 [20] = assay: Induction iof GAP-43 protein expression in rat PC12 cells at 0.1 uM after 48 hrs by Western blotting analysis; format: functional, cell-based
Mus musculus [21] = assay: Antialzheimer activity in wild type learning-impaired Balb/c mouse model with hippocampal lesions assessed as increase in acetylated alpha-tubulin level in hippocampus region at 10 mg/kg, ip administered for 30 days by rotarod test
Mus musculus [22] = assay: Antialzheimer activity in wild type learning-impaired Balb/c mouse model with hippocampal lesions at 10 mg/kg, ip administered for 30 days by rotarod test relative to vehicle-treated control; conditions: Hippocampus, TDE = time-dependent effect

Chain of Poly [ADP-ribose] polymerase 1 (Homo sapiens) (P09874 whole entry): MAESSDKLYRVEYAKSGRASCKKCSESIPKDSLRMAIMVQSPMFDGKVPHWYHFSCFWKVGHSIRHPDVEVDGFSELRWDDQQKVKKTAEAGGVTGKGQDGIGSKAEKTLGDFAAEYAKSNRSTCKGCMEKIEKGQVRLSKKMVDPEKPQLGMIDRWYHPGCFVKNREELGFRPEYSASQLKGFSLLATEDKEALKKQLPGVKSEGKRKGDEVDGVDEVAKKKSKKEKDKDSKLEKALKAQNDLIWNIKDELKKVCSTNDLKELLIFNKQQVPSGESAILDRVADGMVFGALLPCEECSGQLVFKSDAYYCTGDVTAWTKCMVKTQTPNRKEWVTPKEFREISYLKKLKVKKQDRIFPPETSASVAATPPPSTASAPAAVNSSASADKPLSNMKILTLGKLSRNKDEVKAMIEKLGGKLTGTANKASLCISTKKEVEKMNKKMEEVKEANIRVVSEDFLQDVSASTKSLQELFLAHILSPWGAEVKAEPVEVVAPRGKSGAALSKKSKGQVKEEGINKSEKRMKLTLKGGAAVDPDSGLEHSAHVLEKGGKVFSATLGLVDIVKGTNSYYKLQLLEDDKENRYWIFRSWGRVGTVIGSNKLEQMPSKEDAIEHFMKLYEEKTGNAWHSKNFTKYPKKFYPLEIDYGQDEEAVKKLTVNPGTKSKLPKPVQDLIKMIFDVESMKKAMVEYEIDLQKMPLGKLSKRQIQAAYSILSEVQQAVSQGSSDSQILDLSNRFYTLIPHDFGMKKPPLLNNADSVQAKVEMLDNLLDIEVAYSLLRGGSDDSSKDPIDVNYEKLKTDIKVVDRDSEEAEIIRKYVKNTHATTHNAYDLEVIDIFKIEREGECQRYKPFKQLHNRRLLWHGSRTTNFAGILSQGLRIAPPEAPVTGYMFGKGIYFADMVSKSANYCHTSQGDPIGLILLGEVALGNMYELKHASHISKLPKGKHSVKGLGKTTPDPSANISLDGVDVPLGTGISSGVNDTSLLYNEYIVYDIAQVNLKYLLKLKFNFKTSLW
T4 sequence (P05067 whole entry): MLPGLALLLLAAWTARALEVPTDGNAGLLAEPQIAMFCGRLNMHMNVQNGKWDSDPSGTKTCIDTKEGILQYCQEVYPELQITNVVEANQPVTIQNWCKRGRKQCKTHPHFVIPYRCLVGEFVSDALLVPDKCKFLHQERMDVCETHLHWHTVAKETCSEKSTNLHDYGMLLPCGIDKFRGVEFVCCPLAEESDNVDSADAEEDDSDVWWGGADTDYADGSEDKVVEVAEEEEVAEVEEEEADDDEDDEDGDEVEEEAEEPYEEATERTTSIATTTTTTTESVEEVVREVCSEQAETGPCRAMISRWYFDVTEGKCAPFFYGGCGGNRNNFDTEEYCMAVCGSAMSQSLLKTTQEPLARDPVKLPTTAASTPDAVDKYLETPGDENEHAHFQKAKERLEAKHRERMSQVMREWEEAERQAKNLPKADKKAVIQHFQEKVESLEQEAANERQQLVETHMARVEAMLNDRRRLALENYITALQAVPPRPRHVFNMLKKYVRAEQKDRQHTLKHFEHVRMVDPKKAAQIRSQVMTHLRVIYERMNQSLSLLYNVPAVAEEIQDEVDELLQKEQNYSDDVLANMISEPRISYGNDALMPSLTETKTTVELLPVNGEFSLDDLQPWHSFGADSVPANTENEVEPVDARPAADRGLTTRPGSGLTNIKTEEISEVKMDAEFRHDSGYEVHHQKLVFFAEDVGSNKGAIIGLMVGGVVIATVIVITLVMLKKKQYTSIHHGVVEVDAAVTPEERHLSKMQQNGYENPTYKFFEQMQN
Chain of Histone deacetylase 1 (Q13547 whole entry): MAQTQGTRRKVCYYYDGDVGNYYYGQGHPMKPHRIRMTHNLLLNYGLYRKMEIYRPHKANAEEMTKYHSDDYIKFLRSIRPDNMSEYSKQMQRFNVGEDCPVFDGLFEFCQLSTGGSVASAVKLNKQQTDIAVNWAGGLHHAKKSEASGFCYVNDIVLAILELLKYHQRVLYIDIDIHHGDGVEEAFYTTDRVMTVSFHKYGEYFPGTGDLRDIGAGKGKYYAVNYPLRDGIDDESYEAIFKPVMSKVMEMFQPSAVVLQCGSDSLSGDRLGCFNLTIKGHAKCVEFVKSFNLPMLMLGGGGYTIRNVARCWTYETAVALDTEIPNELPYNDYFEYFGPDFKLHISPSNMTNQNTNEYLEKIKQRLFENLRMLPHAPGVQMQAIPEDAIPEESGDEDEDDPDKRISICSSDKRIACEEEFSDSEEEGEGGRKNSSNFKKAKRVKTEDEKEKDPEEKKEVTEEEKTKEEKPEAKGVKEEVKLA
Chain of Histone deacetylase 2 (Q92769 whole entry): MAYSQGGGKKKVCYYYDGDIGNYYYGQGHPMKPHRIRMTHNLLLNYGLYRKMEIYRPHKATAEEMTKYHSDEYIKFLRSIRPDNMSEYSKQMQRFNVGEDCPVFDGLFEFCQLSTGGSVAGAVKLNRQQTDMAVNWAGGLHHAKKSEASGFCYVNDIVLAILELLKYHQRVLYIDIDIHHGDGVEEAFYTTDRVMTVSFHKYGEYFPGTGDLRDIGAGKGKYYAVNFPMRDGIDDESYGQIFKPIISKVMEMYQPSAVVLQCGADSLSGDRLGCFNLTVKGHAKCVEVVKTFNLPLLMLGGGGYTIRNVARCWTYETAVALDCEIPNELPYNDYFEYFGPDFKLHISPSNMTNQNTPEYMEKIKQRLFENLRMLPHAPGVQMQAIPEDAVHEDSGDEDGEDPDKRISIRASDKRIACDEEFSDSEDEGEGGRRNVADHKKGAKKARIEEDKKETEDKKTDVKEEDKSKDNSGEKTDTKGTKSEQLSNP

Row | SMILES | IC50 (Histone deacetylase 8) [µM] | Activity (SH-SY5Y [3]) | Activity (PC-12 [4]) | IC50 (Histone deacetylase 11) [µM] | IC50 (Histone deacetylase 1) [µM] | IC50 [8] [µM] | Activity (Vero) | Activity (PC-12 [9]) | Activity [10] | Activity (PC-12 [11]) | inhibition [13] | IC50 [14] [µM] | IC50 (Histone deacetylase 2) [µM] | IC50 [15] [µM] | Ratio IC50 (Homo sapiens [16]) | IC50 [17] [µM] | Ratio IC50 (Homo sapiens [18]) | further results
1 | CCc1nc2cc(Cc3ccc(C(=O)NO)cc3)ccc2c(=O)n1CCc1ccccc1 | 0.173 | Active | Non-toxic | 1.32 | 4.85 | 0.009 | Non-toxic | Active | Non-toxic | Dose-dependent effect | inactive | – | – | – | – | – | – | inhibition (PC-12 [1]): Active; inhibition (PC-12 [2]): Active; EC50 (SH-SY5Y [5]): 5.5 µM; EC50 (SH-SY5Y [6]): 9.8 µM; EC50 (PC-12 [7]): 9.3 µM; EC50 (PC-12 [12]): 3.6 µM
2 | Cc1nc2cccc(/C=C/C(=O)NO)c2c(=O)n1-c1ccccc1 | 1.06 | – | Non-toxic | > 10 | 18.6 | 1.92 | Non-toxic | – | Non-toxic | – | – | > 50 | > 10 | > 10 | 10 | > 50 | < 1 | –
3 | CC(/C=C/C(=O)NO)=C\[C@@H](C)C(=O)c1ccc(N(C)C)cc1 | – | Active | – | – | – | – | – | Active | – | Dose-dependent effect | – | – | – | – | – | – | – | inhibition (PC-12 [1]): Active; inhibition (PC-12 [2]): Active
4 | CCc1nc2cc(F)c(/C=C/C(=O)NO)cc2c(=O)n1CCc1ccccc1 | 0.766 | Active | Non-toxic | 4.68 | 1.94 | 0.008 | Non-toxic | Active | Non-toxic | Dose-dependent effect | inactive | – | 5.68 | – | – | – | – | inhibition (PC-12 [19]): Dose-dependent effect; EC50 (SH-SY5Y [5]): 4.3 µM; EC50 (SH-SY5Y [6]): 8.6 µM; EC50 (PC-12 [7]): 7.2 µM; Activity (PC-12 [20]): Active; EC50 (PC-12 [12]): 3.3 µM
5 | Cc1nc2cc(/C=C/C(=O)NO)ccc2c(=O)n1-c1ccccc1 | 3.88 | Active | Non-toxic | 1.35 | – | 0.088 | Non-toxic | Active | Non-toxic | Dose-dependent effect | inactive | – | 1.61 | 17.5 | – | – | – | Activity (Mus musculus [21]): Active; inhibition (PC-12 [19]): Dose-dependent effect; Activity (Mus musculus [22]): tde; Activity (PC-12 [20]): Active
6 | Cc1nc2ccc(/C=C/C(=O)NO)cc2c(=O)n1-c1ccccc1 | 0.609 | – | Non-toxic | 5.22 | 2.09 | 0.032 | Non-toxic | – | Non-toxic | – | – | > 50 | 7.48 | 5.14 | 65 | > 50 | 19 | –
7 | Cc1nc2c(/C=C/C(=O)NO)cccc2c(=O)n1-c1ccccc1 | 0.42 | – | Non-toxic | > 10 | 48.5 | 0.69 | Non-toxic | – | Non-toxic | – | – | > 50 | > 10 | 29.8 | 70 | > 50 | < 1 | –
